The values below are quoted from earlier work in US20160120797A1, “ANTI-ACNE COMPOSITION AND METHODS OF USE THEREOF” (priority 2014, published 2016).

Take `O=C(O)Cc1ccccc1Nc1c(Cl)cccc1Cl` [Diclofenac sodium, 2-(2-(2,6-dichlorophenylamino)phenyl)acetic acid]: the anti-bacterial activity entry in the data set with E. Coli and with L. monocytogenes was “anti-bacterial activity” each time.
